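How tested: cells in 96-well plates exposed to compound for 48 hours at five concentrations. Here, GI50 denotes the concentration required for 50% inhibition of growth. Definition used: TGI = concentration required for complete inhibition of growth.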
Key:
Assay in all cases: NCI tumour cell line growth inhibition, 48 h
[1] = test system: SF-539 CNS
[2] = test system: SN12C renal
[3] = test system: MCF7 breast
[4] = test system: UACC-62 melanoma
[5] = test system: EKVX NSCLC
[6] = test system: BT-549 breast
[7] = test system: TK-10 renal
[8] = test system: HCC-2998 colon
[9] = test system: DU-145 prostate
[10] = test system: HS 578T breast

Row | Structure (SMILES) | GI50 [1] | TGI [1] | GI50 [2] | TGI [2] | GI50 [3] | TGI [3] | GI50 [4] | TGI [4] | GI50 [5] | TGI [5] | GI50 [6] | TGI [6] | GI50 [7] | TGI [7] | TGI [8] | GI50 [8] | GI50 [9] | TGI [9] | GI50 [10] | TGI [10]
1 | O=[N+]([O-])c1ccc(C=C2C(Cl)=C(Cl)C(Cl)=C2Cl)cc1 | 2.54 µM | 7.09 µM | 3.02 µM | > 100 µM | 2.78 µM | 10.9 µM | 4.24 µM | 24.4 µM | 3.67 µM | > 100 µM | 4.75 µM | > 100 µM | 2.41 µM | 7.58 µM |  |  |  |  |  | 
2 | Cc1cc(=O)[nH]c(NN2C(Cl)C(=O)C2c2cccc(O)c2)n1 (stereo unspecified) |  | 31.6 µM |  | > 100 µM |  |  |  | 17.8 µM |  | > 100 µM |  |  |  | > 100 µM | > 100 µM |  |  |  |  | 
3 | COc1ccc(C2CC(c3cccc(Nc4ccncc4)c3)=NN2c2cc(Cl)cc(Cl)c2)cc1 (stereo unspecified) | 1.68 µM | 3.14 µM | 1.62 µM | 3.16 µM | 1.67 µM | 3.3 µM | 1.9 µM | 3.94 µM | 1.89 µM | 4.68 µM | 5.57 µM | 24.8 µM |  |  | 2.85 µM | 1.47 µM | 1.89 µM | 3.58 µM |  | 
4 | Cc1ccc2c(n1)C(=O)c1[nH]c3ccccc3c1C2=O | 2.15 µM | 5.11 µM | 2 µM | 6.06 µM | 0.586 µM | 2.63 µM | 0.557 µM | 1.88 µM | 1.22 µM | 4.17 µM |  |  | 12 µM | > 100 µM | 6.37 µM | 1.88 µM | 1.19 µM | 2.53 µM | 2.54 µM | 7.16 µM
5 | c1ccc(N=C2SC(=NC3CCCCC3)N(C3CCCCC3)C2=Nc2ccccc2)cc1 |  |  |  | > 100 µM |  | > 100 µM |  | > 100 µM |  |  |  | > 100 µM |  |  | > 100 µM |  |  | > 100 µM |  | > 100 µM
6 | CC(=O)OC1CCC2(C)C3CCC4(C)C(c5ccc(=O)oc5)CC5OC54C3CCC2(O)C1 (stereo unspecified) |  | 2.78 µM |  | 34.2 µM |  | 14.8 µM |  | 6.95 µM |  | 3.64 µM |  |  |  |  | 14 µM |  |  |  |  | 
7 | Cc1nc(N)sc1-c1ccnc(Nc2ccc(N3CCOCC3)cc2)n1 |  |  | 2.24 µM | > 100 µM | 1.43 µM | > 100 µM |  |  | 4.02 µM | > 100 µM | 1.56 µM | > 100 µM | 1.06 µM | 8.14 µM | > 100 µM | 11.8 µM | 2.99 µM | > 100 µM | 0.603 µM | > 100 µM
8 | CCC[CH2][Ge]([CH2]CCC)([CH2]CCC)[O]C(=O)CC(=O)c1ccccc1 | 1.57 µM | 6.17 µM | 0.538 µM | 15 µM |  |  | 1.7 µM | 10.1 µM | 0.955 µM | 16.2 µM |  |  | 7.03 µM | 21 µM | 6.16 µM | 1.3 µM |  |  |  | 
9 | O=C(OC(=O)n1ccc2ccccc21)n1ccc2ccccc21 |  | > 100 µM |  | > 100 µM |  | > 100 µM |  | > 100 µM |  | > 100 µM |  |  |  |  | > 100 µM |  |  |  |  | 
10 | O=NN(CCCl)C(=O)NC1CCSc2ccccc21 (stereo unspecified) |  | > 74.5 µM |  | > 100 µM |  | > 100 µM |  | > 100 µM |  | 94.1 µM |  |  |  |  | > 100 µM |  |  |  |  | 
11 | COc1ccccc1C1C(C(=O)O)=C(CO)Oc2cc3c(cc21)OCO3 (stereo unspecified) |  | > 100 µM |  | > 100 µM |  |  |  | > 100 µM |  | > 100 µM |  |  |  | > 100 µM |  |  |  |  |  | 
12 | NCCCNc1nc2ccccc2c2c(=O)c3cc(OC(F)(F)F)ccc3sc12 | 1.68 µM | 3.15 µM | 1.66 µM | 3.14 µM |  |  | 1.66 µM | 3.07 µM |  |  | 10.7 µM | 32.6 µM | 2.14 µM | 3.74 µM | 3.25 µM | 1.71 µM | 1.62 µM | 3.04 µM |  | 
13 | CC1CC=CC(O)C1 (stereo unspecified) |  | > 100 µM |  | > 100 µM |  | > 100 µM |  | > 100 µM |  | > 100 µM |  |  |  |  | > 100 µM |  |  |  |  | 
14 | CC(=O)Oc1cccc2c(/C=N/NC(N)=S)ncc(C)c12 |  | 1.98 µM |  | 17.1 µM |  | 3.32 µM |  | 12.3 µM |  | 39.7 µM |  | 12.3 µM |  | 22 µM | 18.9 µM |  |  | 17.8 µM |  | > 73 µM
15 | NC(Cc1cccc([N+](=O)[O-])c1)C(=O)O (stereo unspecified) |  | > 100 µM |  | > 100 µM |  | > 100 µM |  | > 100 µM |  | > 100 µM |  | > 100 µM |  | > 100 µM | > 100 µM |  |  | > 100 µM |  | > 100 µM
16 | NC(CCCCP(=O)(O)O)C(=O)O (stereo unspecified) |  | > 100 µM |  | > 100 µM |  |  |  | > 100 µM |  | > 100 µM |  | > 100 µM |  | > 100 µM | > 100 µM |  |  | > 100 µM |  | > 100 µM
17 | NNC(N)Nc1ccccc1 (stereo unspecified) |  | > 100 µM |  | > 100 µM |  | > 100 µM |  | > 100 µM |  | > 100 µM |  | > 100 µM |  | > 100 µM | > 100 µM |  |  | > 100 µM |  | > 100 µM
